Test results from the supplement of paper PMC10307832.

Columns and labels:
Experiment in all cases: relative viability (nuclei count vs DMSO), 5 days (fraction); higher = more cells survive
GSK126 + Navitoclax = compound: CC[C@H](C)N1C=C(C2=C(C=C(C=C21)C3=CN=C(C=C3)N4CCNCC4)C(=O)NCC5=C(C=C(NC5=O)C)C)C [GSK126] + CC1(C)CCC(c2ccc(Cl)cc2)=C(CN2CCN(c3ccc(C(=O)NS(=O)(=O)c4ccc(N[C@H](CCN5CCOCC5)CSc5ccccc5)c(S(=O)(=O)C(F)(F)F)c4)cc3)CC2)C1 [Navitoclax] (partner 0.5 µM)
Method in brief: (§1)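 Lung cancer cell lines in 1536-well plates were dosed by pin tool the day after seeding, either with one drug alone or with a fixed anchor-drug dose plus five library-drug doses (not always all listed) in √10 steps. After 5 days, cells were fixed and their nuclei stained in one step (final 0.05% Triton X-100, 1% formaldehyde, 1 ug/ml Hoechst), then counted on 4× images. Relative viability is the nuclei count in treated wells divided by that in vehicle wells. Values are medians of duplicate plates.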

GSK126 + Crizotinib = compound: CC[C@H](C)N1C=C(C2=C(C=C(C=C21)C3=CN=C(C=C3)N4CCNCC4)C(=O)NCC5=C(C=C(NC5=O)C)C)C [GSK126] + C[C@@H](Oc1cc(-c2cnn(C3CCNCC3)c2)cnc1N)c1c(Cl)ccc(F)c1Cl [Crizotinib] (partner 1 µM)
Method in brief: as §1

Carboplatin + Linsitinib = compound: C1CC(C1)(C(=O)O)C(=O)O.[NH2-].[NH2-].[Pt+2] [Carboplatin] + C[C@]1(O)C[C@@H](c2nc(-c3ccc4ccc(-c5ccccc5)nc4c3)c3c(N)nccn32)C1 [Linsitinib] (partner 1 µM)
Method in brief: as §1

GSK126 + OSI-027 = compound: CC[C@H](C)N1C=C(C2=C(C=C(C=C21)C3=CN=C(C=C3)N4CCNCC4)C(=O)NCC5=C(C=C(NC5=O)C)C)C [GSK126] + COc1cccc2cc(-c3nc([C@H]4CC[C@H](C(=O)O)CC4)n4ncnc(N)c34)[nH]c12 [OSI-027] (partner 0.5 µM)
Method in brief: as §1

## UMC-11
GSK126 + Navitoclax; first compound 0.08 µM
  relative viability: 0.323
GSK126 + Navitoclax; first compound 0.253 µM
  relative viability: 0.314
GSK126 + Navitoclax; first compound 0.8 µM
  relative viability: 0.316
GSK126 + Navitoclax; first compound 2.53 µM
  relative viability: 0.264
GSK126 + Navitoclax; first compound 8 µM
  relative viability: 0.279
GSK126 + Crizotinib; first compound 0.08 µM
  relative viability: 0.723
GSK126 + Crizotinib; first compound 0.253 µM
  relative viability: 0.689
GSK126 + Crizotinib; first compound 0.8 µM
  relative viability: 0.604
GSK126 + Crizotinib; first compound 2.53 µM
  relative viability: 0.523
GSK126 + Crizotinib; first compound 8 µM
  relative viability: 0.525
Carboplatin + Linsitinib; first compound 0.08 µM
  relative viability: 1.02
Carboplatin + Linsitinib; first compound 0.253 µM
  relative viability: 1.01
Carboplatin + Linsitinib; first compound 0.8 µM
  relative viability: 0.928
Carboplatin + Linsitinib; first compound 2.53 µM
  relative viability: 0.98
Carboplatin + Linsitinib; first compound 8 µM
  relative viability: 0.837
GSK126 + OSI-027; first compound 0.08 µM
  relative viability: 0.563
GSK126 + OSI-027; first compound 0.253 µM
  relative viability: 0.522
GSK126 + OSI-027; first compound 0.8 µM
  relative viability: 0.484
GSK126 + OSI-027; first compound 2.53 µM
  relative viability: 0.44
GSK126 + OSI-027; first compound 8 µM
  relative viability: 0.43
